According to patent US12263154B2, “Composition using 4′,6,7-trimethoxyisoflavone and catechol for managing pulmonary fibrosis” (A-CHEMBIO CO., LTD, priority 2020, dated 2025):

Legend:
[1] = system: alveolar epithelial A549 cells; assay: Cell penetration inhibition (Matrigel trans-well), EMT induced by TGF-β1; type: cell-based; conditions: TGF-β1-treated A549; BCT 10 μM, BCC 0.5 μM; 24 hours; FIG. 3
Description: As EMT progresses, the proliferation and movement of epithelial cells increases, cell penetration increases, and cell morphology changes, thereby confirming EMT inhibitory efficacy and evaluating the degree of expression of mechanism-related factors.
Trans-well inserts (Corning, USA) were coated with Matrigel® (Corning) at 2 mg/L. Dilute A549 cells to about 5×10^5/mL in 200 μl of serum-free media, and TGF-β1, TGF-β1 and sample BCT (10 μM) or TGF-β1 and sample BCC (0.5 μM) was added and dispensed into trans-well inserts. The cells were cultured for 24 hours by dispensing a medium containing 10% serum in the receive chambers. After the culture was completed, the cells remaining in the insert were removed, and the cells penetrating the receiving chamber were stained with crystal violet and photographed under a microscope.

lung fibrosis = assay: Histopathological examination in bleomycin pulmonary fibrosis animal model; type: in vivo, mice; conditions: BLM 3 mg/kg into airways, samples administered daily; for size of the fibrosis area according to the tissue scoring system (Ashcroft score): Masson's trichrome, graph at bottom of FIG. 8; for size of the increased fibrosis area (H&E staining): lung on day 29, FIG. 8
Description: The airways of the mice were incised, and bleomycin (3 mg/kg, BLM) was injected into the airways. After injection, the incision site was sutured with nylon thread, samples of BCT and/or BCC were administered daily 24 hours after bleomycin was injected. Mice were raised to 28 days from the start date of the experiment and sacrificed on day 29 to separate the broncho-alveolar lavage fluid (BALF) and lung tissue and used in further experiments. In order to evaluate lung fibrosis, animal models of each control group and experimental group were sacrificed, and the lungs were extracted from these animal models, fixed in 10% neutral buffered formalin (NBF), and then embedded with paraffin to produce tissue sections with a thickness of 2-4 um. After the sections were prepared, Hematoxylin-Eosin staining and Masson's trichrome staining were performed for comparison of histological findings and observed with an optical microscope. H&E staining was performed to evaluate inflammation and epithelial cell hypertrophy due to lung fibrosis, and Masson's trichrome staining was used to evaluate fibrosis using the following tissue scoring method (Scoring system, Ashcroft score). [table]

[2] = system: major markers of pulmonary fibrosis in lung tissue; assay: Western blot of protein expression level using lung tissue, pulmonary fibrosis animal model; type: in vivo, mice; conditions: compared to BLM-induced group; FIG. 9
Description: (§1) The airways of the mice were incised, and bleomycin (3 mg/kg, BLM) was injected into the airways. After injection, the incision site was sutured with nylon thread, samples of BCT and/or BCC were administered daily 24 hours after bleomycin was injected. Mice were raised to 28 days from the start date of the experiment and sacrificed on day 29 to separate the broncho-alveolar lavage fluid (BALF) and lung tissue and used in further experiments.
Animal models of each control group and the experimental group raised for 28 days were sacrificed, and lung tissue samples and serum samples were obtained from these animal models, respectively, and stored in a deep freezer at −70° C. Western blotting was performed for α-Sma, TGF-β1, Fibronectin, and E-cadherin proteins known as major markers of pulmonary fibrosis.
Lung tissue was put into T-PER buffer (lysis buffer, Thermo. Scientific, Wilmington, DE, USA) as a standard of 500 μL per 50 mg of tissue, and the tissue was homogenized using a homogenizer. The homogenized tissue was centrifuged at 13,000 rpm, and the supernatant was used as a sample for Western blot. The concentration of the tissue homogenate was quantified using a BCA Protein assay kit (Thermo. Scientific, Wilmington, DE, USA) solution. After mixing the protein and 6× sample buffer (1 mL of glycerol, 0.5 mL of β-Mercaptoethanol, 3 mL of 10% SDS, 1.25 mL of 1 M Tris-HCl, 1-2 μg of bromophenol blue), electrophoresis was performed on SDS polyacrylamide gel. After transferring to Nitrocellulose Membrane (Millipore, Billerica, MA, USA) and blocking with 5% non-fat skim milk, protein expression levels of related factors were measured using various antibodies, and whether the protein amount was the same was confirmed using actin. Each of the primary antibodies was diluted and reacted at room temperature for 4 hours, washed 3 times with TBST, the secondary antibody was diluted at 1:5,000 and reacted at room temperature for 30 minutes. After washing with TBST, a band was obtained after light emission with ECL solution (LPS solution, Korea, Seoul).

cells in BALF = assay: Change in cell number in bronchoalveolar lavage fluid (BALF), pulmonary fibrosis animal model; type: in vivo, mice; conditions: increased in BLM-administered group; FIG. 10
Description: as §1
Pulmonary fibrosis is characterized by an increase in the total number of cells and the percentage of neutrophils in the BALF fluid.
After collecting BALF from each experimental animal group, neutrophils and alveolar macrophages, including total cells, were measured. The method of measuring the total number of cells in BALF, the ratio of neutrophils and alveolar macrophages, etc., is as follows. BALF was mixed with trypan blue in a ratio of 1:1, and then the total number of cells was counted as ×104/BALF 1 mL using a hemocytometer (Fisher Scientific, PA, USA). The prepared BALF was spread on a slide glass and then stained with Diff Quik (manufactured by Sysmex Corporation, USA), the number of neutrophils and alveolar macrophages among a total of 200 cells was counted under a microscope, and the ratio was measured and recorded.

[3] = system: alveolar epithelial A549 cells; assay: Cell migration inhibition (scratch), EMT induced by TGF-β1; type: cell-based; conditions: TGF-β1-treated A549; BCT 10 μM, BCC 0.5 μM; 72 hours; FIG. 2
Description: As EMT progresses, the proliferation and movement of epithelial cells increases, cell penetration increases, and cell morphology changes, thereby confirming EMT inhibitory efficacy and evaluating the degree of expression of mechanism-related factors. A549 cells were seeded at 1×10^5 cells in 1 mL per well in a 6-well plate and cultured at 37° C. under 5% CO 2 for 24 hours. After 24 hours, a single cell layer was scratched with a 1 mL tip and a medium containing TGF-β1, TGF-β1, and sample BCT (10 μM) or TGF-β1, and sample BCC (0.5 μM) was added to each well. After culturing for 72 hours, the degree of cell migration was confirmed under a microscope, and images were taken.

[4] = system: EMT mechanism-related factors in A549 cells; assay: Western blot of EMT mechanism-related factors; type: cell-based; conditions: BCT 10 μM, BCC 0.5 μM; for expression of E-cadherin: decreased by TGF-β1 treatment; for expression of E-cadherin / expression of Cyr61 / expression of Fibronectin / expression of Integrin β3 / expression of SMA2/3 / expression of Vimentin / expression of α-Sma: FIG. 4; for expression of Cyr61 / expression of Fibronectin / expression of Integrin β3 / expression of SMA2/3 / expression of Vimentin / expression of α-Sma / expression of pAKT / expression of pERK: increased by TGF-β1 treatment; for expression of pAKT / expression of pERK: FIG. 5
Description: 2×10^6 A549 cells were attached to a 100 mm culture vessel for 24 hours, treated with TGF-β1, TGF-β1 and sample BCT (10 μM) and/or TGF-β1 and sample BCC (0.5 μM)) and cultured. After collecting all of the cultured cells, the cell precipitate was dissolved in a cell lysate RIPA lysis buffer (LPS solution, Korea, Seoul), followed by centrifugation at 13,000 rpm for 20 minutes to obtain a supernatant. The total amount of protein was quantified using the BCA Protein assay kit (Thermo. Scientific, Wilmington, DE, USA) solution. After mixing the protein and 6× sample buffer (1 mL of glycerol, 0.5 mL of β- Mercaptoethanol, 3 mL of 10% SDS, 1.25 mL of 1 M Tris-HCl, 1-2 μg of bromophenol blue), electrophoresis was performed on SDS polyacrylamide gel. After transferring to Nitrocellulose Membrane (Millipore, Billerica, MA, USA) and blocking with 5% non-fat skim milk, protein expression levels of related factors were measured using various antibodies, and whether the protein amount was the same was confirmed using actin. Each of the primary antibodies was diluted and reacted at room temperature for 4 hours, washed 3 times with TBST, the secondary antibody was diluted at 1:5,000 and reacted at room temperature for 30 minutes. After washing with TBST, a band was obtained after light emission with ECL solution (LPS solution, Korea, Seoul). The results are shown in FIG. 4 for the Smad-dependent factor and FIG. 5 for the Smad-independent factor.

[5] = system: alveolar epithelial A549 cells; assay: Cell morphological changes, EMT induced by TGF-β1; type: cell-based; conditions: changed by TGF-β1 treatment, BCT 10 μM, BCC 0.5 μM, 48 hours, FIG. 6
Description: A549 cells were seeded on a 60 mm plate at 1×10^5 /mL and cultured for 24 hours. Then, 5 mL of a medium containing TGF-β1, TGF-β1 and sample BCT (10 μM) and/or TGF-β1 and sample BCC (0.5 μM) was added to each well and incubated for another 48 hours. After culturing, the cells were checked under a microscope, and images were taken.

[6] = system: human fibroblasts (HDF, Human Dermal Fibroblast); assay: MTT cytotoxicity assessment; type: cell-based; conditions: 24 hours and 48 hours, FIG. 1
Description: (§2) Using the MTT (3-(4,5-dimethylthiazol-2yl)-2,5-diphenyl-2H-tetrazolium bromide) assay was applied to investigate the effect of TMF (BCT) and catechol (BCC) on cell proliferation. 5×10^3 cells/well were placed in a 96-well plate and incubated for 24 hours at 37° C., 5% CO2 incubator. Then, each sample was treated in each well according to the concentration and then incubated for 24 hours. Then, after washing with PBS, 20 μL of MTT dissolved in PBS and 200 μL of FBS-free DMEM were treated in each well and then incubated for 4 hours under the same conditions after blocking the light. After 4 hours, the culture solution was removed, treated with 200 μL of DMSO (dimethyl sulfoxide), and left at 37° C. for 2 hours, and absorbance was measured at 570 nm using a microplate reader.
(§3) The cell viability after 24 hours and 48 hours is shown in FIG. 1 as a percentage compared to the control group, the untreated sample group.

[7] = system: human lung fetal cells (MRC-5); assay: MTT cytotoxicity assessment; type: cell-based; conditions: 24 hours and 48 hours, FIG. 1
Description: as §2, §3

muscle cells (C2C12) = assay: MTT cytotoxicity assessment; type: cell-based; conditions: 24 hours and 48 hours, FIG. 1
Description: as §2, §3

| Compound | number of cells penetrating into the receiving chamber [1] | size of the fibrosis area according to the tissue scoring system (Ashcroft score) (lung fibrosis) | size of the increased fibrosis area (H&E staining) (lung fibrosis) | E-cadherin expression in lung tissue [2] | expression level of TGF-β1 in lung tissue [2] | expression level of fibronectin in lung tissue [2] | expression level of α-SMA in lung tissue [2] | number of lymphocytes in BALF (cells in BALF) | number of neutrophils in BALF (cells in BALF) | total number of cells in BALF (cells in BALF) | cell migration [3] | expression of E-cadherin [4] | expression of Cyr61 [4] | expression of Fibronectin [4] | expression of Integrin β3 [4] | expression of SMA2/3 [4] | expression of Vimentin [4] | expression of α-Sma [4] | expression of pAKT [4] | expression of pERK [4] | other results |
| --- | --- | --- | --- | --- | --- | --- | --- | --- | --- | --- | --- | --- | --- | --- | --- | --- | --- | --- | --- | --- | --- |
| COc1ccc(-c2coc3cc(OC)c(OC)cc3c2=O)cc1 [BCT, 4′,6,7-trimethoxyisoflavone] | decreased | reduced | reduced | increased | decreased | decreased | decreased | significantly decreased | significantly decreased | significantly decreased | decreased | increased | decreased | decreased | decreased | decreased | decreased | decreased | decreased | decreased | cell morphology [5]: recovered similarly to the control; cytotoxicity (cell viability) [6]: did not show any particular cytotoxicity; cytotoxicity (cell viability) [7]: did not show any particular cytotoxicity; cytotoxicity (cell viability) (muscle cells (C2C12)): did not show any particular cytotoxicity |
| Oc1ccccc1O [BCC, 1,2-dihydroxybenzene] | decreased | reduced | reduced | increased | decreased | decreased | decreased | significantly decreased | significantly decreased | significantly decreased | decreased | increased | decreased | decreased | decreased | decreased | decreased | decreased | decreased | decreased | cell morphology [5]: recovered similarly to the control; cytotoxicity (cell viability) [6]: did not show any particular cytotoxicity; cytotoxicity (cell viability) [7]: did not show any particular cytotoxicity; cytotoxicity (cell viability) (muscle cells (C2C12)): did not show any particular cytotoxicity |
